Assay results published in the SangsterLogP compilation.

Test: method code RP-HPLC, from DOI: 10.1021/jm030408h, PMID: 14971904

SMILES | logP
OC(CNCC(O)C1CCc2cc(F)ccc2O1)C1CCc2cc(F)ccc2O1 (stereo not given) | 2.76
CC[C@H]1OC(=O)[C@H](C)[C@@H](O[C@H]2C[C@@](C)(OC)[C@@H](O)[C@H](C)O2)[C@H](C)[C@@H](O[C@@H]2O[C@H](C)C[C@H](N(C)C)[C@H]2O)[C@](C)(O)C[C@@H](C)CN(C)[C@H](C)[C@@H](O)[C@]1(C)O | 0.9
CCC(C)n1ncn(-c2ccc(N3CCN(c4ccc(OC[C@H]5CO[C@](Cn6cncn6)(c6ccc(Cl)cc6Cl)O5)cc4)CC3)cc2)c1=O (stereo not given in full) | 5.9
COc1ccc2c3c1O[C@H]1C(=O)CC[C@@]4(O)[C@@H](C2)N(C)CC[C@]314 | 0.37
CCc1nn(CCCN2CCN(c3cccc(Cl)c3)CC2)c(=O)n1CCOc1ccccc1 | 4.95
CCCCCc1cc(O)c2c(c1)OC(C)(C)[C@@H]1CCC(C)=C[C@@H]21 | 6.99
COc1ccc2c3c1O[C@H]1C[C@@H](O)C=C[C@@]31CCN(C)C2 | 0.21
CN1CC(C(=O)NC2(C)OC3(O)C4CCCN4C(=O)C(Cc4ccccc4)N3C2=O)C=C2c3cccc4[nH]cc(c34)CC21 (stereo not given) | 4.38
C#CCCCC(=O)c1cc(C(C)(C)C)c(O)c(C(C)(C)C)c1 | 5.63
C[N+](C)([O-])CCC=C1c2ccccc2CCc2ccccc21 | 3.14
